Patent US10023519B2, “Cyclobutane containing carboxylic acid GPR120 modulators” (BRISTOL-MYERS SQUIBB COMPANY, priority 2014, dated 2018)
pEC50: −log10 of the molar value.

What follows are compounds tested on C57BL/6 mice (assay: Acute Oral Glucose Tolerance Test). Settings: dosed at 30 mg/kg orally 60 min before glucose challenge (2 g/kg), AUC t=0-120 min compared to vehicle.
Type: in vivo, mouse
Protocol: In Vivo GPR120 Assays 1) Acute Oral Glucose Tolerance Test
C57BL/6 mice were housed individually and fed a standard rodent chow diet. At approximately 11 weeks age, after a 5 h fast, these mice were orally treated with vehicle or test compounds 60 min before a glucose challenge (2 g/kg). Blood glucose levels were determined from tail bleeds taken at −60, 0, 15, 30, 60 and 120 min after the glucose challenge. […] This AUC for compound treatment is compared to vehicle treatment.
For `O=C(O)CO[C@H]1C[C@@H](c2ccc(-c3cc(Oc4ccccc4)ccc3F)cc2)C1` [Example 1, Cis-2-(-3-(2′-fluoro-5′-phenoxy-[1,1′-biphenyl]-4-yl)cyclobutoxy)acetic acid], the “reduced glucose AUC” value was 42%.

Each compound was assayed against human GPR120 (Homo sapiens (Human), UniProt Q5NUL3) (assay: GPR120 pERK AlphaScreen SureFire Assay (human)). Settings: CHO cells stably transfected with short form of human GPR120.
human GPR120, sequence (Q5NUL3 whole entry): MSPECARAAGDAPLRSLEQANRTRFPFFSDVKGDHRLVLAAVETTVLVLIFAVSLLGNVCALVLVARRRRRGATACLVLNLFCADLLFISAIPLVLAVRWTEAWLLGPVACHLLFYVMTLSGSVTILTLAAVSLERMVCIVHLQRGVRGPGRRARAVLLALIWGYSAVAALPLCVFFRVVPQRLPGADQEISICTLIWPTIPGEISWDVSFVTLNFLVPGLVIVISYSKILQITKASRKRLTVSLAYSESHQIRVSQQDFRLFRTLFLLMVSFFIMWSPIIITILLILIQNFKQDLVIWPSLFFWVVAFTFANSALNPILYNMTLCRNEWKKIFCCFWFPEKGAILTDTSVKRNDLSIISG
Type: cell-based
Description: GPR120 activity was monitored by measuring phosphorylation of ERK (pERK), since G protein receptors are known to activate the ERK signaling cascade either directly and/or through recruitment of arrestin that serves as a scaffold for downstream signaling events.
GPR120 pERK AlphaScreen SureFire Assay
The human and mouse GPR120-mediated intracellular phosphorylated ERK assays were established using CHOA12 cells stably transfected with the short form of human or mouse GPR120 receptor. […] Cells were cryo preserved at a concentration of 2×10^7 cells/mL, in 90% Charcoal/Dextran FBS and 10% DMSO, and frozen in liquid nitrogen at a low passage number.
The flasks were placed in a tissue culture incubator overnight (37° C., 5% CO2). […] The next day, cells were serum starved in 30 μL of F-12 media without any serum or antibiotics for 2 hours at 37° C.
Cells were then stimulated with 50 nL of compound dilutions using ECHO liquid handler for 7 minutes at 37° C.
(§1) The lysis buffer was diluted 5-fold with water before use. […] The SureFire assay reagent mix was prepared by mixing 60 parts Reaction Buffer, 10 parts Activation Buffer, 1 part Donor Beads, 1 part Acceptor Beads (Perkin Elmer Cat. #TGRES10K). 3.5 μL/well of this reagent mix was manually added to the proxiplate with a multichannel pipettor. Plates were spun down at 1000 rpm for 2 minutes, followed by light-protected incubation at room temperature for 2 hours. The plates were read on the Alpha-technology compatible Envision multilabel plate reader using AlphaScreen protocol according to manufacturer's specifications. The agonist effect of compounds was expressed as 100× (average sample−average blank)/(average total−average blank) where sample is the luminescence activity in the presence of test compound, blank is equal to the luminescence activity in the presence of DMSO control and the total is signal induced by 50 μM linolenic acid as reference compound. Activation data for the test compound over a range of concentrations was plotted as percentage activation of the test compound (100%=maximum response). After correcting for background, EC50 values were determined.
The human and mouse GPR120-mediated intracellular phosphorylated ERK assays were also established using CHO-K1 cells stably transfected with the short form of human or mouse GPR120 receptor. […] Cells were cryo preserved at a concentration of 3×10^6 cells/mL, in 70% F-12, 20% Charcoal/Dextran FBS and 10% DMSO, and frozen in liquid nitrogen at a low passage number.
The flasks were placed in a tissue culture incubator overnight (37° C., 5% CO2).
Cells were then stimulated with 40 nL of compound dilutions using ECHO liquid handler for 7 minutes at 37° C.
as §1, with “compound.” for “compound. Activation data for the test compound over a range of concentrations was plotted as percentage activation of the test compound (100%=maximum response). After correcting for background, EC50 values were determined.”
Activation data for the test compound over a range of concentrations was plotted as percentage activation of the test compound (100%=maximum response). After correcting for background, EC50 values were determined.
`O=C(O)CO[C@H]1C[C@@H](c2ccc(-c3cc(Oc4ccccc4)ccc3F)cc2)C1` [Example 1, Cis-2-(-3-(2′-fluoro-5′-phenoxy-[1,1′-biphenyl]-4-yl)cyclobutoxy)acetic acid] was tested, and the pEC50 was 6.77.
Work on `O=C(O)CO[C@H]1C[C@@H](c2ccc(-c3cc(OC(F)(F)F)ccc3Cl)cc2)C1` [Example 8, Cis-2-(3-(2′-chloro-5′-(trifluoromethoxy)-[1,1′-biphenyl]-4-yl)cyclobutoxy)acetic acid] yielded a pEC50 of 6.05.
Work on `O=C(O)CO[C@H]1C[C@@H](c2ccc(-c3cc(Oc4ccccn4)ccc3F)cc2)C1` [Example 26, Cis-2-(3-(2′-fluoro-5′-(pyridin-2-yloxy)-[1,1′-biphenyl]-4-yl)cyclobutoxy) acetic acid] yielded a pEC50 of 6.31.
In the case of `O=C(O)CO[C@H]1C[C@@H](c2ccc(-c3cc(Oc4ccc(F)cc4)cc(F)c3F)cc2)C1` [Example 34, Cis-2-(3-(2′,3′-difluoro-5′-(4-fluorophenoxy)-[1,1′-biphenyl]-4-yl)cyclobutoxy)acetic acid], the pEC50 was 6.62.
In the case of `Cc1nc(-c2ccc(F)c(-c3ccc([C@H]4C[C@@H](OCC(=O)O)C4)cc3)c2)no1` [Example 21, Cis-2-(3-(2′-Fluoro-5′-(5-methyl-1,2,4-oxadiazol-3-yl)-[1,1′-biphenyl]-4-yl)cyclobutoxy)acetic acid], the pEC50 was 6.26.
With `CC1(C)Cc2cc(Cl)cc(-c3ccc([C@H]4C[C@@H](OCC(=O)O)C4)cc3)c2O1` [Example 24, Cis-2-(3-(4-(5-chloro-2,2-dimethyl-2,3-dihydrobenzofuran-7-yl)phenyl)cyclobutoxy) acetic acid] the pEC50 was 5.54.
